In patent publication US20120301895A1, “METHODS OF MODULATING BINDING OF SON OF SEVENLESS TO PHOSPHATIDIC ACID AND IDENTIFYING COMPOUNDS THAT MODULATE SUCH BINDING” (THE RESEARCH FOUNDATION OF STATE UNIVERSITY OF NEW YORK, priority 2007, published 2012):

Key:
PLD1 = target: T1, PLD1 (Homo sapiens, UniProt Q13393); experiment: In vitro PLD activity, exogenous substrate assay, PLD1; format: biochemical; settings: purified recombinant PLD1 with ARF-1, 30 min at 37° C.
T1 construct: made in house
T1 sequence (Q13393 1-1074): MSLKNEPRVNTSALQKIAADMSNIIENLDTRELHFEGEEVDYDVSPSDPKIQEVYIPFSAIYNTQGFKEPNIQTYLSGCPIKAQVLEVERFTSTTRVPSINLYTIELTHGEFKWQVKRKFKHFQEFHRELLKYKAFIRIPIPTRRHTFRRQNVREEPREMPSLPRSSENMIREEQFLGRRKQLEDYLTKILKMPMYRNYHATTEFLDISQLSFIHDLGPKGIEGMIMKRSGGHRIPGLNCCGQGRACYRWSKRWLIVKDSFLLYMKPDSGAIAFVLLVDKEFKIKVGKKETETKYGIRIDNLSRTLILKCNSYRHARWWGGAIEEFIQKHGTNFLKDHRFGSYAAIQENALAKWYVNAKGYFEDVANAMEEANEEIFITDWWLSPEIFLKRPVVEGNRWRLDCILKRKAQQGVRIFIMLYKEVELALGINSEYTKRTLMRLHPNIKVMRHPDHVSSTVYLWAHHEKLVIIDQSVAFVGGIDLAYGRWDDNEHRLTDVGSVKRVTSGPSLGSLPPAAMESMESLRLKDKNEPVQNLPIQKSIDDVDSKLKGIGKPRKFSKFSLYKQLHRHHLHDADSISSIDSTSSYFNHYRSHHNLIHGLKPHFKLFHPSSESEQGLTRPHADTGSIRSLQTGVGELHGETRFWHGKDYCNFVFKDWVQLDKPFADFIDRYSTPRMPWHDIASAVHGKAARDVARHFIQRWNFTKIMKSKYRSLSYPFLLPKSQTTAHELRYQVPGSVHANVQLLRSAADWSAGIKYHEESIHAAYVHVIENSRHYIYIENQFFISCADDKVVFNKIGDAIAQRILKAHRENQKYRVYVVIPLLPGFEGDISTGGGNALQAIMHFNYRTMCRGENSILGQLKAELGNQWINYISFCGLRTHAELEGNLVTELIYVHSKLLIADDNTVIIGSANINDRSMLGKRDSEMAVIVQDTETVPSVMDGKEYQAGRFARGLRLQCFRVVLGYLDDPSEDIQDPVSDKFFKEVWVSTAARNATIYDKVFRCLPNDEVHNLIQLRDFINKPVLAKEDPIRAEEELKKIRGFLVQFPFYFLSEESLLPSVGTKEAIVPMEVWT
Description: In FIG. 13A, MDA-MB-231 cells were plated as in FIGS. 12A-C and then shifted to either 10% serum or 0.5% serum overnight as indicated. Honokiol (20 μM) or control ethanol was then added for 4 hr as indicated, at which time the cells were harvested and the levels of PBt were determined as in FIGS. 12A-C. The experiment shown is representative of at least three independent experiments. In FIG. 13B, the effect of honokiol on the activity of PLD isoforms was measured using exogenous substrate assay as described previously (Henage et al., “Kinetic Analysis of a Mammalian Phospholipase D: Allosteric Modulation by Monomeric GTPases, Protein Kinase C, and Polyphosphoinositides,” J. Biol. Chem. 281:3408-17 (2006), which is hereby incorporated by reference in its entirety). […] The amount of background was determined and subtracted using a bovine serum albumin standard. […]
For in vivo PLD activity, cells were plated in 60 mm culture dishes in DMEM with 10% serum at a density that would allow them to grow to about 80% confluence after 2 days, then cells were shifted to DMEM containing 0.5% or 10% serum as indicated in the figure legends overnight. […] Briefly, PLD activity was measured by the release of [methyl-^3H] choline from [choline-methyl-^3H]dipalmitoyl-phosphatidylcholine. […]

tumor growth = settings: Bai et al. 2003; cited from earlier work

C=CCc1ccc(O)c(-c2ccc(O)c(CC=C)c2)c1 [honokiol, Honokiol]
in vitro activity of PLD1 (PLD1): no significant effect
tumor growth in mouse xenografts (tumor growth): blocked tumor growth
